The conditions of test [1]: in vitro; cited from earlier work.
In test [2] the test system is volume expansion induced hypertensive rats. Kind of test: Systolic blood pressure in saline volume expansion induced hypertensive rats (NDS). The class given is in vivo. The settings on record: NDS rats given resibufogenin (NDSR) vs NDS; FIG. 1. The text has this: (§1) FIG. 1. Mean systolic blood pressure (BP) values in sham (SHM) animals, angiotensin-infused rats (ANG), angiotensin infused animals given resibufogenin (ANGR), normal rats rendered hypertensive by the infusion of saline (volume expansion induced hypertensive rats) (NDS), NDS rats given resibufogenin (NDSR).

Another test has as its system angiotensin-infused rats. As to the kind of experiment: Systolic blood pressure in angiotensin-infused rats (ANG). The class given is in vivo. The settings on record: FIG. 1.
Excerpt: as §1

Test [3] concerns volume expansion-mediated hypertension. The settings on record: experimental animals; cited from earlier work.
In test [4] the test system is animals subjected to angiotensin excess. The settings on record: cited from earlier work.
The test system of test [5] is rodent brain contusion model. The settings on record: given 1 hour after the insult; cited from earlier work.
The subject of test [6] is preeclampsia in animal models. The settings on record: cited from earlier work.

As for `C[C@]12CC[C@H](O)C[C@@]1(O)CC[C@@H]1[C@@H]2CC[C@]2(C)[C@@H](c3ccc(=O)oc3)C[C@H]3O[C@]132` [MBG, marinobufagenin], the Vasoconstrictor action result in test [1] is on record as “acts in vitro as a vasoconstrictor”.

On to `C[C@]12CC[C@H](O)C[C@H]1CC[C@@H]1[C@@H]2CC[C@]2(C)[C@@H](c3ccc(=O)oc3)C[C@H]3O[C@]132` [RBG, epoxy-3β-hydroxy-5β-bufa-20,22-dienolide], for which the “Mean systolic blood pressure (BP)” value in test [2] was “reduced blood pressure”; in the test on angiotensin-infused rats (angiotensin infused animals given resibufogenin (ANGR) vs ANG), “only in the volume expanded animals”. Besides, in test [3], the Blood pressure elevations entry is on record as “resolves blood pressure elevations”. In test [4], the Elevated blood pressure entry was “does not lower elevated blood pressure”. Besides, the Tissue injury entry in test [5] is “amelioration of tissue injury”. In test [6], the Prevention of preeclampsia entry was “prevents preeclampsia”.

With “angiotensin (DRVYIHPF; Angiotensin-2; UniProt P01019 25-32, looked up) [the major vasoconstrictor in the human body; infused to render rats hypertensive]”, the “Mean systolic blood pressure (BP), effect of angiotensin infusion” value in the test on angiotensin-infused rats (angiotensin-infused rats (ANG) vs sham (SHM)) is “raised blood pressure equivalently”.

Source of the values: patent US20150338397A1, “Use of Bufodienolides in Diagnosing and Treating Essential Hypertension” (priority 2014, published 2015).
